Assay results taken from publication PMC3299889 (Analytical Biochemistry, 2012).

Assays:
Assay type in all cases: biochemical
HCV NS3/4A = HCV NS3/4A (Hepatitis C virus genotype 1a, UniProt P27958)
SARS-CoV PLpro = SARS-CoV PLpro (Severe acute respiratory syndrome coronavirus, UniProt P0C6X7)
SARS-CoV 3CLpro = SARS-CoV 3CLpro (Severe acute respiratory syndrome coronavirus, UniProt P0C6X7)

Chain of HCV NS3/4A (P27958 1027-1657): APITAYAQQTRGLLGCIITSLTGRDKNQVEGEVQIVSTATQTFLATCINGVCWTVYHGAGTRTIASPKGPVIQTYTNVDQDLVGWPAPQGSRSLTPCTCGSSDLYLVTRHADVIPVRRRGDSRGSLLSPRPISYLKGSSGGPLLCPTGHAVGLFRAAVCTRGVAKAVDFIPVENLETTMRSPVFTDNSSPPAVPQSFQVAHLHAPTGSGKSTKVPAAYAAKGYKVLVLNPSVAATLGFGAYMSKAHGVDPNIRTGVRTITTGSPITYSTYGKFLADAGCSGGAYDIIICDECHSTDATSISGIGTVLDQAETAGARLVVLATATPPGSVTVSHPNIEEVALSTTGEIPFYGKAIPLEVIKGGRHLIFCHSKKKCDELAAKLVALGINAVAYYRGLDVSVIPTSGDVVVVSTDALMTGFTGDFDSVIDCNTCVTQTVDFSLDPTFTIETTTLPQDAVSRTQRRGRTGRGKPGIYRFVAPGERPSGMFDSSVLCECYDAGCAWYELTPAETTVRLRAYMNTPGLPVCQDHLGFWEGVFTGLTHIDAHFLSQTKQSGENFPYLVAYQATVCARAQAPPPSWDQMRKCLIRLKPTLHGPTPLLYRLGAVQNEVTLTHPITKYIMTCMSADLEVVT
Chain of HCV NS3/4A (P27958 1658-1711 partner limits assumed): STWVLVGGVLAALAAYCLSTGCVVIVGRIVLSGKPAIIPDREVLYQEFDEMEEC

| SMILES | Kcat/KM ratio (HCV NS3/4A) | Vmax (HCV NS3/4A) [RFU/10 min] | Vmax (SARS-CoV PLpro) [RFU/10 min] | increase of KM (SARS-CoV PLpro) [fold] | Vmax (SARS-CoV 3CLpro) [RFU/10 min] | change of enzyme efficiency (Kcat/KM) (HCV NS3/4A) [fold] | Km (HCV NS3/4A) [nM] | Kcat/KM ratio (SARS-CoV PLpro) | Km (SARS-CoV PLpro) [µM] | Kcat/KM ratio (SARS-CoV 3CLpro) | Km (SARS-CoV 3CLpro) [µM] |
| --- | --- | --- | --- | --- | --- | --- | --- | --- | --- | --- | --- |
| O=C(O)CCP(CCC(=O)O)CCC(=O)O [TCEP, tris(2-carboxyethyl)phosphine] | 0.5 | 75 ± 15 | 441 ± 41 | 2.5 | 472 ± 18 |  |  |  |  |  |  |
| O[C@@H](CS)[C@@H](O)CS (racemic) [DTT, dithiothreitol] |  | 181 ± 21 | 813 ± 36 | 4 | 435 ± 12 | 1.6 |  |  |  |  |  |
| OCCS [β-MCE, β-mercaptoethanol] | 1.4 | 161 ± 8 | 438 ± 30 |  | 453 ± 24 |  | 2500 ± 100 | 1.2 | 117 ± 7 | 1.2 | 14.8 ± 1.2 |
| N[C@@H](CCC(=O)N[C@@H](CS)C(=O)NCC(=O)O)C(=O)O [GSH, reduced glutathione] | 1.5 | 151 ± 8 | 449 ± 14 | 1.5 | 516 ± 9 |  |  | 1.0 |  | 1.2 | 16.1 ± 0.8 |
